According to patent US20190255091A1, “RNAi AGENTS FOR [sequence] B VIRUS INFECTION” (priority 2016, published 2019):
Where “and” joins values, the source holds several entries; their conditions need not be identical. Identical values can stand only once.

What was measured:
Assay type in all cases: in vivo
[1] = test system: Hepatitis B Virus (HBV); experiment: Serum HBsAg levels in pHBV model mice (ELISA); set-up: key to Average HBsAg levels normalized to pre-treatment (day −1) and PBS control / Average HBsAg levels normalized to pre-treatment and PBS control: fraction of pre-treatment level, relative to PBS control mean; conditions: for Average HBsAg normalized to pre-treatment and PBS control: 2.0 mg/kg, single s.c. injection on day 1
Source text: (§1) Six to eight-week-old female NOD.CB17-Prkdscid/NcrCrl (NOD-SCID) mice were transiently transfected in vivo with MC-HBV1.3 by hydrodynamic tail vein injection (Yang P L et al. “Hydrodynamic injection of viral DNA: a mouse model of acute hepatitis B virus infection,” PNAS USA 2002 Vol. 99: p. 13825-13830), administered 30 to 45 days prior to administration of an HBV RNAi agent or control. MC-HBV1.3 is a plasmid-derived minicircle that contains the same terminally redundant human hepatitis B virus sequence HBV1.3 as in plasmid pHBV1.3 and in the HBV1.3.32 transgenic mice (GenBank accession #V01460) (Guidotti L G et al., “High-level hepatitis B virus replication in transgenic mice,” J Virol 1995 Vol. 69, p 6158-6169.). 5 or 10 μg MC-HBV1.3 in Ringer's Solution in a total volume of 10% of the animal's body weight was injected into mice via tail vein to create pHBV model of chronic HBV infection. The solution was injected through a 27-gauge needle in 5-7 seconds as previously described (Zhang G et al., “High levels of foreign gene expression in hepatocytes after tail vein injection of naked plasmid DNA.” Human Gene Therapy 1999 Vol. 10, p 1735-1737.). At pre-dose (either day 1 pre-dose, day −1, or day −2), Hepatitis B surface antigen (HBsAg) HBsAg expression levels in serum were measured by ELISA and the mice were grouped according to average HBsAg expression levels.
(§2) HBV expression levels were normalized to pre-administration expression levels and to control mice injected with phosphate buffered saline (“PBS”).
Mice were anesthetized with 2-3% isoflurane and blood samples were collected from the submandibular area into serum separation tubes (Sarstedt AG & Co., Nümbrecht, Germany). Blood was allowed to coagulate at ambient temperature for 20 min. The tubes were centrifuged at 8,000×g for 3 min to separate the serum and stored at 4° C.
Serum was collected and diluted 10 to 8000-fold in PBS containing 5% nonfat dry milk. […] HBsAg levels were determined with a GS HBsAg EIA 3.0 kit (Bio-Rad Laboratories, Inc., Redmond, Wash.) as described by the manufacturer. Recombinant HBsAg protein, ayw subtype, also diluted in nonfat milk in PBS, was used as a primary standard (Aldevron).
HBsAg expression for each animal was normalized to the control group of mice injected with PBS in order to account for the non-treatment related decline in expression of MC-HBV1.3. First, the HBsAg level for each animal at a time point was divided by the pre-treatment level of expression in that animal in order to determine the ratio of expression “normalized to pre-treatment”. Expression at a specific time point was then normalized to the control group by dividing the “normalized to pre-treatment” ratio for an individual animal by the average “normalized to pre-treatment” ratio of all mice in the normal PBS control group.

[2] = test system: Hepatitis B Virus (HBV); experiment: Serum HBV DNA levels in pHBV model mice (qPCR); conditions: 0.8 mg/kg, injection on day 1 and day 22, Example 16
Source text: as §1, §2
Equal volumes of serum from mice in a group or subgroup were pooled to a final volume of 100 μL. DNA was isolated from serum samples using the QIAamp MinElute Virus Spin Kit (Qiagen, Valencia, Calif.) following the manufacturer's instructions. Sterile 0.9% saline was added to each sample to a final volume of 200 μL. Serum samples were added to tubes containing buffer and protease. Carrier RNA was added to aid in the isolation of small amounts of DNA. […] After incubating 15 min at 56° C., nucleic acids were precipitated from the lysates with ethanol and the entire solution applied to a column. After washing, the samples were eluted into a volume of 50 μL Buffer AVE.
The number of copies of HBV genomes in DNA isolated from the pHBV mouse model serum was determined by qPCR. Plasmid pSEAP-HBV353-777, encoding a short segment of the HBV genome within the S gene (bases 353-777 of GenBank accession #V01460), was used to create a six log standard curve. Samples with recovery of DNA below 2 standard deviations from the average, based on detection of pHCR/UbC-SEAP were omitted. TaqMan chemistry-based primers and probes with fluor/ZEN/IBFQ are utilized.
qPCR assays were performed on a 7500 Fast or StepOne Plus Real-Time PCR system (Life Technologies). For evaluation of HBV DNA in serum, DNA was isolated from singlet or duplicate purification steps from pooled group serum samples. Quantitations of HBV DNA and recovery control plasmid were determined by qPCR reactions performed in triplicate. The probes to quantitate HBV and pHCR/UbC-SEAP were included in each reaction.

[3] = test system: Hepatitis B Virus (HBV); experiment: Serum HBeAg levels in pHBV model mice (ELISA); conditions: 0.8 mg/kg, injection on day 1 and day 22, Example 16
Source text: as §1, §2
HBeAg analysis was performed with the HBeAg enzyme linked immunosorbent assay (ELISA) as described by the manufacturer (DiaSorin) using serum diluted 4- to 20-fold in 5% nonfat dry milk. The amount of antigen was determined in the linear range of the assay and quantitated against HBeAg protein standards (Fitzgerald Industries International, catalog #30-AH18, Acton, Mass.).
HBeAg expression for each animal was normalized to the control group of mice injected with PBS in order to account for the non-treatment related decline in expression of MC-HBV1.3. For evaluation of HBeAg in serum, HBeAg is analyzed from pooled group or subgroup serum samples. First, the HBeAg level for each pooled group or subgroup was divided by the pre-treatment level of expression in the same group or subgroup in order to determine the ratio of expression “normalized to pre-treatment”. Expression at a specific time point was then normalized to the control group by dividing the “normalized to pre-treatment” ratio for a group or subgroup by the average “normalized to pre-treatment” ratio of all samples from the normal PBS control group.

[4] = test system: HBV genotype C; experiment: Serum HBsAg levels in HBV-infected humanized FRG model mice; conditions: Group A: daily oral 0.01 mg/kg Entecavir, PBS (no RNAi agent), individual mouse
Source text: (§3) For this study, Male FRG® (genotype Fah−/−/Rag2−/−/Il2rg−/− triple knockout mice on a C57BL/6 background (Yecuris) were transplanted with human hepatocytes when they were 1-2 months old. The human hepatocytes were allowed to repopulate the liver for approximately 6 months with periodic NTBC treatment to discourage growth of mouse hepatocytes. At 9 months of age the mice were given an intravenous inoculation of 4×10^8 genomes/kg HBV genotype C, which infected the human hepatocytes. After 2-3 months, serum HBV DNA levels reached a plateau indicating the human hepatocytes were maximally infected (mouse hepatocytes cannot be infected by HBV). Mice were one year old at the start of treatment with HBV RNAi agents, thus nearing the end of their life span.
(§4) Pre-treatment serum samples were taken on day −10 and day −3. Beginning on day 1, each mouse was administered an oral daily gavage with 0.01 mg/kg Entecavir dissolved in water to inhibit HBV replication. Daily dosing of Entecavir continued until the day mice were euthanized. Entecavir administration was expected to reduce serum HBV DNA in chronically infected human patients, but not reduce HBsAg.
(§5) Each mouse was also given a subcutaneous administration of 100 μl per 20 grams body weight containing the amount of HBV RNAi agent(s) formulated in phosphate buffered saline, or an equal volume of phosphate buffered saline without an HBV RNAi agent, on day 1 and on day 29 (if still alive on day 29), pursuant to the schedule as set forth in Table 47, directly above. […] The injections were performed between the skin and muscle (i.e. subcutaneous injections) into the loose skin over the neck and shoulder area.
Serum was collected on day 8, day 15, day 22, day 29, day 36, and day 40 and serum Hepatitis B surface antigen (HBsAg) levels were determined pursuant to the procedure set forth in Example 2, above.

[5] = test system: HBV genotype C; experiment: Serum HBV DNA levels in HBV-infected humanized FRG model mice
Source text: as §3, §4, §5
Additionally, serum HBV DNA levels were determined from serum samples collected on days −10, −3, 8, 15, 22, 29, 36, and 40, pursuant to the procedure set forth in Example 2, above.

AD05070: HBV RNAi agent duplex AM06606-AS/AM06605-SS (antisense UACCAAUUUAUGCCUACAGCG; sense CGCUGUAGGCAUAAAUUGGUA; chemistry not fully specified)
Average HBsAg levels normalized to pre-treatment and PBS control ([1]; Day 8, 0.8 mg/kg, injection on day 1 and day 22, Example 16): 0.446 ± 0.143 | Average HBsAg levels normalized to pre-treatment and PBS control ([1]; Day 8, 0.8 mg/kg, single s.c. injection day 1, Example 8): 0.355 ± 0.099 and 0.271 ± 0.058 | Average HBsAg normalized to pre-treatment and PBS control ([1]; Day 8, Example 15): 0.081 ± 0.026 | Average HBsAg levels normalized to pre-treatment and PBS control ([1]; Day 14, 0.8 mg/kg, single s.c. injection day 1, Example 8): 0.366 ± 0.069 and 0.334 ± 0.060 | Average HBsAg levels normalized to pre-treatment and PBS control ([1]; Day 14, 4.0 mg/kg, single s.c. injection day 1, Example 8): 0.069 ± 0.039 and 0.079 ± 0.047 | Average HBsAg levels normalized to pre-treatment and PBS control ([1]; Day 15, 0.8 mg/kg, injection on day 1 and day 22, Example 16): 0.376 ± 0.120 | Average HBsAg normalized to pre-treatment and PBS control ([1]; Day 15, Example 15): 0.127 ± 0.031 | Average HBsAg levels normalized to pre-treatment and PBS control ([1]; Day 21, 0.8 mg/kg, single s.c. injection day 1, Example 8): 0.464 ± 0.055 | Average HBsAg levels normalized to pre-treatment and PBS control ([1]; Day 21, 4.0 mg/kg, single s.c. injection day 1, Example 8): 0.145 ± 0.082 | Average HBsAg levels normalized to pre-treatment and PBS control ([1]; Day 22, 0.8 mg/kg, injection on day 1 and day 22, Example 16): 0.474 ± 0.149 | Average HBsAg normalized to pre-treatment and PBS control ([1]; Day 22, Example 15): 0.223 ± 0.057 | Average HBsAg levels normalized to pre-treatment and PBS control ([1]; Day 28, 0.8 mg/kg, single s.c. injection day 1, Example 8): 0.624 ± 0.053 | Average HBsAg levels normalized to pre-treatment and PBS control ([1]; Day 28, 4.0 mg/kg, single s.c. injection day 1, Example 8): 0.135 ± 0.061 | Average HBsAg levels normalized to pre-treatment and PBS control ([1]; Day 29, 0.8 mg/kg, injection on day 1 and day 22, Example 16): 0.338 ± 0.123 | Average HBsAg normalized to pre-treatment and PBS control ([1]; Day 29, Example 15): 0.330 ± 0.112 | Average HBsAg normalized to pre-treatment and PBS control ([1]; Day 36, Example 15): 0.472 ± 0.121 | Average HBsAg normalized to pre-treatment and PBS control ([1]; Day 43, Example 15): 0.515 ± 0.126 | Average HBsAg normalized to pre-treatment and PBS control ([1]; Day 50, Example 15): 0.689 ± 0.167 | knockdown of HBsAg compared to PBS control ([1]; Example 15, administered alone or in combination with AD04872, across each of the time points measured): significant knockdown of HBsAg | Average Serum HBV DNA levels normalized to pre-treatment and PBS control ([2]; Day 8): 1.124 ± 0.142 | Average Serum HBV DNA levels normalized to pre-treatment and PBS control ([2]; Day 15): 0.742 ± 0.127 | Average Serum HBV DNA levels normalized to pre-treatment and PBS control ([2]; Day 22): 0.807 ± 0.192 | Average HBeAg levels normalized to pre-treatment and PBS control ([3]; Day 8): 0.634 | Average HBeAg levels normalized to pre-treatment and PBS control ([3]; Day 15): 0.594 ± 0.082 | Average HBeAg levels normalized to pre-treatment and PBS control ([3]; Day 22): 0.840 ± 0.152 | Average HBeAg levels normalized to pre-treatment and PBS control ([3]; Day 29): 0.271 ± 0.029

C=C1[C@H](CO)[C@@H](O)C[C@@H]1n1cnc2c(=O)[nH]c(N)nc21 [Entecavir]
HBsAg levels normalized to pre-treatment (day −3), Day 8 ([4]; Day 8): 0.830 and 1.303 | HBsAg levels normalized to pre-treatment (day −3), Day 15 ([4]; Day 15): 0.828 and 1.328 | HBsAg levels normalized to pre-treatment (day −3), Day 22 ([4]; Day 22): 0.932 | HBsAg levels normalized to pre-treatment (day −3), Day 29 ([4]; Day 29): 0.858 | HBsAg levels normalized to pre-treatment (day −3), Day 36 ([4]; Day 36): 1.107 | viral replication (serum HBV DNA) ([5]; Example 18, 0.01 mg/kg oral daily gavage, absence and presence of HBV RNAi agents): reduced viral replication | Serum HBV DNA levels normalized to the average of pre-treatment day −10 and day −3, Day 8 ([5]; Group A: daily oral 0.01 mg/kg Entecavir, PBS (no RNAi agent), individual mouse, Day 8): 0.072 and 0.130 | Serum HBV DNA levels normalized to the average of pre-treatment day −10 and day −3, Day 15 ([5]; Group A: daily oral 0.01 mg/kg Entecavir, PBS (no RNAi agent), individual mouse, Day 15): 0.038 and 0.075 | Serum HBV DNA levels normalized to the average of pre-treatment day −10 and day −3, Day 22 ([5]; Group A: daily oral 0.01 mg/kg Entecavir, PBS (no RNAi agent), individual mouse, Day 22): 0.015 | Serum HBV DNA levels normalized to the average of pre-treatment day −10 and day −3, Day 29 ([5]; Group A: daily oral 0.01 mg/kg Entecavir, PBS (no RNAi agent), individual mouse, Day 29): 0.027 | Serum HBV DNA levels normalized to the average of pre-treatment day −10 and day −3, Day 36 ([5]; Group A: daily oral 0.01 mg/kg Entecavir, PBS (no RNAi agent), individual mouse, Day 36): 0.060
